The target in data set [1] is T1, PXR (NR1I2) ligand binding domain (Homo sapiens, UniProt O75469).
T1 sequence (O75469 whole entry): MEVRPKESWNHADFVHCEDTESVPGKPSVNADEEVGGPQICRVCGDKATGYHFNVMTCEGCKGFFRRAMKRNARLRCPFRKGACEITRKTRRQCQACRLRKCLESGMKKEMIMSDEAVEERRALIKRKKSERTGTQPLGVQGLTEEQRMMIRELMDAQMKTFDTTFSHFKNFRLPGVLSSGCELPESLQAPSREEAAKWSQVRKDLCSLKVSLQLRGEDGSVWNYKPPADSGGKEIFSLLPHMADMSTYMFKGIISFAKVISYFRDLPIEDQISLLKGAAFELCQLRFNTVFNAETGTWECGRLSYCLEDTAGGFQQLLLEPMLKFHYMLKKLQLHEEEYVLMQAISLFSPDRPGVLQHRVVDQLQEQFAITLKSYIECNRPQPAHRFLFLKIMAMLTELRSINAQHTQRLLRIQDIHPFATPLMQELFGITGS
As to the kind of experiment: Inhibition of BODIPY FL vindoline binding to recombinant human GST-tagged PXR LBD (111 to 434 residues) expressed in baculovirus infected insect cells at 10 uM incubated for 1 mins under shaking condition followed by 60 mins under dark condition by TR-FRET assay relative to control. To be noted: probe BODIPY FL vindoline, time 61 min.

Data set [2] addresses T2, Nuclear receptor subfamily 1 group I member 2 (Homo sapiens, UniProt O75469).
T2 sequence (O75469 whole entry): T1 sequence (O75469 whole entry)
In words: Agonist activity at human PXR in human HepG2 cells co-expressing luciferase gene under control of CYP3A4 promoter assessed as transcriptional activation incubated for 24 hrs by luminescence based analysis.

Data set [3] concerns the target T2, Nuclear receptor subfamily 1 group I member 2. As to the kind of experiment: Agonist activity at human PXR in human HepG2 cells co-expressing luciferase gene under control of CYP3A4 promoter assessed as transcriptional activation at 10 uM incubated for 24 hrs by luminescence based analysis relative to control.
The target is the same in data set [4]. In words: Inverse agonist activity at human PXR in human HepG2 cells co-expressing luciferase gene under control of CYP3A4 promoter assessed as inhibition in receptor basal activity at 30 uM incubated for 24 hrs by luminescence based analysis. The settings on record: hepg2, 24 h.
Data set [5] has the same target. In words: Antagonist activity at human PXR in human HepG2 cells co-expressing luciferase gene under control of CYP3A4 promoter assessed as inhibition in rifampicin-induced receptor activation at 30 uM incubated for 24 hrs by luminescence based analysis. The format is cell-based. To be noted: hepg2, 24 h.
The target is the same in data set [6]. In words: Inhibition of BODIPY FL vindoline binding to recombinant human GST-tagged PXR LBD (111 to 434 residues) expressed in baculovirus infected insect cells incubated for 1 mins under shaking condition followed by 60 mins under dark condition by TR-FRET assay. To be noted: for inhibition (INH): human, 1.017 h, time 61 min.
Data set [7] deals with T3, PXR (NR1I2) (Homo sapiens, UniProt O75469).
T3 sequence (O75469 whole entry): T1 sequence (O75469 whole entry)
As to the kind of experiment: Inverse agonist activity at human PXR in human HepG2 cells co-expressing luciferase gene under control of CYP3A4 promoter assessed as inhibition in receptor basal activity at 10 uM incubated for 24 hrs by luminescence based analysis relative to control. The format is cell-based.

Data set [8] addresses T2, Nuclear receptor subfamily 1 group I member 2. As to the kind of experiment: Agonist activity at human PXR in human HepG2 cells co-expressing luciferase gene under control of CYP3A4 promoter assessed as transcriptional activation at 30 uM incubated for 24 hrs by luminescence based analysis. It counts as cell-based. The settings on record: hepg2, 24 h.
Data set [9] has as its target T3, PXR (NR1I2). In words: Antagonist activity at human PXR in human HepG2 cells co-expressing luciferase gene under control of CYP3A4 promoter assessed as inhibition in rifampicin-induced receptor activation at 10 uM incubated for 24 hrs by luminescence based analysis relative to control. It counts as cell-based.
Data set [10] addresses T2, Nuclear receptor subfamily 1 group I member 2. In words: Inverse agonist activity at human PXR in human HepG2 cells co-expressing luciferase gene under control of CYP3A4 promoter assessed as inhibition of receptor basal activity incubated for 24 hrs by luminescence based analysis. It counts as cell-based.

A word on the inhibition: it is the drop in the measured response relative to a control, in per cent. In general, EC50 refers to the concentration needed to bring the measured effect to its halfway point. `COc1ccc(OC)c(-n2nnc(C(=O)Nc3ccc(NC(C)=O)c(C(C)(C)C)c3)c2C)c1`: the inhibition at 1.017 h, 10 µM in data set [1] came out at 65%. Besides, the concentration giving a half-maximal response (EC50) in [2] is 2 µM. The activity at 24 h, 10 µM in [3] was 50%. For the same molecule, the INH result in [4] was “Not Active”. Further, in [5], the “inhibition (INH)” value is recorded as “Not Active”.
The IC50 is the concentration at which inhibition is half-maximal. On to `CCC[C@@H](C)Oc1ccc(C(C)(C)C)cc1NC(=O)c1nnn(-c2cc(C)ccc2OC)c1C`, for which the IC50 in data set [6] came out at 0.011 µM. Further, the EC50 in data set [2] is 0.0081 µM. The INH result in [4] is on record as “Not Active”.
Take `CCCOc1ccc(C(C)(C)C)cc1NC(=O)c1nnn(-c2cc(OC)ccc2OC)c1C`: the inhibition at 1.017 h, 10 µM in data set [1] came to 79%. In addition, on PXR (NR1I2) [7], the inhibition at 24 h, 10 µM turned out to be 114%. In addition, in data set [8], the Activity entry is listed as “Not Active”.
With `COc1ccc(OC)c(-n2nnc(C(=O)Nc3ccccc3)c2C)c1`, the “inhibition (INH)” value in data set [6] and in data set [5] was “Not Active” in each case. The EC50 in [2] is 25 µM. Besides, the activity at 24 h, 10 µM in data set [3] was 33%. The INH result in [4] is listed as “Not Active”.
Take `COc1ccc(OC)c(-n2nnc(C(=O)Nc3cc(B4OC(C)(C)C(C)(C)O4)cc(C(C)(C)C)c3)c2C)c1`: the inhibition at 1.017 h, 10 µM in data set [1] was found to be 67%. Also, the values for the inhibition at 24 h, 10 µM on PXR (NR1I2) [7] and on PXR (NR1I2) [9] were 138% and 104%, respectively. For the same molecule, the Activity entry in [8] is reported as “Not Active”.
`CCCC(C)Oc1ccc(C(C)(C)C)cc1NC(=O)c1nnn(-c2cc(OC)ccc2OC)c1C` (racemic): the inhibition at 1.017 h, 10 µM in [1] worked out at 90%. The inhibition at 24 h, 10 µM at PXR (NR1I2) [7] amounted to 117%. The Activity entry in data set [8] was “Not Active”.
The matching figures for `CCC[C@@H](C)Oc1ccc(C(C)(C)C)cc1NC(=O)c1nnn(-c2cc(OC)ccc2OC)c1C`: 81%, 91% and “Not Active”.
Take `COc1ccc(OC)c(-n2nnc(C(=O)Nc3cc(C(C)(C)C)ccc3OCCN3CCOCC3)c2C)c1`: the inhibition at 1.017 h, 10 µM in [1] was 68%. Also, the IC50 in [10] is 1.4 µM. Moreover, the inhibition at 24 h, 10 µM at PXR (NR1I2) [7] was found to be 81%. In addition, the Activity entry in data set [8] is “Not Active”.
On to `COc1ccc(OC)c(-n2nnc(C(=O)Nc3cc(C(C)(C)C)ccc3N)c2C)c1`, for which the “inhibition (INH)” value in data set [6] and in data set [5] was “Not Active” each time. Besides, in data set [3], the activity at 24 h, 10 µM was determined as 25%. Besides, the INH result in [4] is “Not Active”.
For the molecule `CCCCOc1ccc(C(C)(C)C)cc1NC(=O)c1nnn(-c2cc(OC)cc(OC)c2)c1C`, the “inhibition (INH)” value in [6] and in data set [5] was “Not Active” in each case. In [3], the activity at 24 h, 10 µM came out at 32%. Besides, in [4], the INH entry is reported as “Not Active”.
As to `COc1ccc(OC)c(-n2nnc(C(=O)Nc3cccc(C)c3)c2C)c1`, the inhibition at 1.017 h, 10 µM in data set [1] was 52%. Besides, the activity at 24 h, 10 µM in data set [3] came to 30%. The INH result in data set [4] is on record as “Not Active”. The “inhibition (INH)” value in [5] was “Not Active”.
In the case of `COc1ccc(OC)c(-n2nnc(C(=O)Nc3cc(C(C)(C)C)ccc3NC(C)=O)c2C)c1`, the inhibition at 1.017 h, 10 µM in data set [1] was determined as 60%. In addition, in [3], the activity at 24 h, 10 µM was 60%. The INH entry in data set [4] is listed as “Not Active”. In addition, the “inhibition (INH)” value in data set [5] is recorded as “Not Active”.
Regarding `CCCCOc1ccc(C(C)(C)C)cc1NC(=O)c1nnn(-c2ccc3c(c2)OCO3)c1C`, the “inhibition (INH)” value in [6] and in data set [5] was “Not Active” throughout. For the same molecule, in [3], the activity at 24 h, 10 µM stood at 43%. In data set [4], the INH entry is on record as “Not Active”.
For `CCCCN(CCCC)c1cc(NC(=O)c2nnn(-c3cc(OC)ccc3OC)c2C)cc(C(C)(C)C)c1`, the inhibition at 24 h, 10 µM on PXR (NR1I2) [9] amounted to 82%. Also, the Activity entry in data set [8] is on record as “Not Active”.
In the case of `CCCCOc1ccc(C(C)(C)C)cc1NC(=O)c1nnn(-c2cc(OC)ccc2C)c1C`, the inhibition at 1.017 h, 10 µM in [1] was 10%. For the same molecule, in [2], the concentration for a half-maximal effect (EC50) was 1.66 µM. The activity at 24 h, 10 µM in data set [3] turned out to be 16%. Besides, the INH result in data set [4] is given as “Not Active”. Besides, in [5], the “inhibition (INH)” value was “Not Active”.
`COc1ccc(OC)c(-n2nnc(C(=O)Nc3ccc(N)c(C(C)(C)C)c3)c2C)c1`: the inhibition at 1.017 h, 10 µM in data set [1] was 86%. Further, the activity at 24 h, 10 µM in data set [3] came out at 33%. Moreover, the INH result in data set [4] was “Not Active”. In data set [5], the “inhibition (INH)” value is “Not Active”.
As to `CCCCOc1ccc(NC(=O)c2nnn(-c3cc(OC)ccc3OC)c2C)cc1C(C)(C)C`, the “inhibition (INH)” value in [6] was “Not Active”. In addition, the inhibition at 24 h, 10 µM at PXR (NR1I2) [7] came to 73%.
For the molecule `COc1ccc(OC)c(-n2nnc(C(=O)Nc3cc(C(C)(C)C)ccc3OCCN(C)C)c2C)c1`, the inhibition at 1.017 h, 10 µM in data set [1] amounted to 87%. Further, the IC50 in data set [10] is 1.8 µM. Besides, the Activity result in data set [8] is listed as “Not Active”.
For the molecule `CCCCOc1ccc(C(C)(C)C)cc1NC(=O)c1nnn(-c2cc(OC)ccc2OC)c1C`, the inhibition at 1.017 h, 10 µM in data set [1] was found to be 90%. Moreover, the inhibition at 24 h, 10 µM on PXR (NR1I2) [7] is 89%. For the same molecule, the Activity result in [8] was “Not Active”.
Consider `COc1ccc(OC)c(-n2nnc(C(=O)Nc3cc(N(C)C)cc(C(C)(C)C)c3)c2C)c1`, for which the inhibition at 24 h, 10 µM at PXR (NR1I2) [9] is 110%. Moreover, the Activity entry in data set [8] is “Not Active”.
Taken in the same sequence, the figures for `CNc1cc(NC(=O)c2nnn(-c3cc(OC)ccc3OC)c2C)cc(C(C)(C)C)c1` were 109% and “Not Active”.
In the case of `CCOc1ccc(C(C)(C)C)cc1NC(=O)c1nnn(-c2cc(OC)ccc2OC)c1C`, in data set [1], the inhibition at 1.017 h, 10 µM is 73%. Moreover, the inhibition at 24 h, 10 µM at PXR (NR1I2) [7] turned out to be 118%. Besides, in data set [8], the Activity entry was “Not Active”.
Regarding `COc1ccc(OC)c(-n2nnc(C(=O)Nc3cccc(N4CCCCC4)c3)c2C)c1`, in data set [1], the inhibition at 1.017 h, 10 µM was 50%. For the same molecule, the inhibition at 24 h, 10 µM on PXR (NR1I2) [7] is 36%. In data set [8], the Activity result was “Not Active”. In data set [5], the “inhibition (INH)” value is given as “Not Active”.

The values are drawn from ChEMBL document CHEMBL5236619, “Design and Optimization of 1H-1,2,3-Triazole-4-carboxamides as Novel, Potent, and Selective Inverse Agonists and Antagonists of PXR” (J Med Chem, 2022).
